Among the data in ChEMBL document CHEMBL1208734, “Aryl boronic acid inhibition of synthetic melanin polymerization” (Bioorg Med Chem Lett, 2010) are IC50 and residual activity values, retold here.

Assay [1] is described as follows: Inhibition of synthetic melanin polymerization after 30 to 60 mins by UV-vis spectroscopic analysis. In kind it is functional.
Assay [2] can be described thus: Inhibition of synthetic melanin polymerization at 2 mM after 30 to 60 mins by UV-vis spectroscopic analysis relative to control. In kind it is functional. As to conditions: values are per cent of control.

Molecules are shown by their SMILES.

Regarding `OB(O)c1ccc(F)cc1`, the IC50 in assay [1] is 1840 µM. The compound also returned a residual activity in assay [2] of 49.7%.

Regarding `Cc1ccc(B(O)O)cc1` [TOLYL BORONIC ACID], inhibition in assay [1] was half-maximal at 4450 µM (IC50). This compound also came in with a residual activity in assay [2] of 62.8%.

For `CC(=O)c1ccc(B(O)O)cc1`, in assay [1], it took 690 µM to reach half-maximal inhibition (IC50). In assay [2], this compound displayed a residual activity of 30.5%.

In assay [1], `OB(O)c1ccc(Cl)cc1` gave an IC50 of 1310 µM. This compound gave a residual activity in assay [2] of 41.2%.

As for `N#Cc1ccc(B(O)O)cc1`, inhibition in assay [1] was half-maximal at 590 µM (IC50). The compound further displayed a residual activity in assay [2] of 19.4%.

Consider `O=[N+]([O-])c1ccc(B(O)O)cc1`, for which half-maximal inhibition in assay [1] (IC50) was put at 550 µM. Further, the residual activity in assay [2] came out at 21.5%.

In assay [1], `OB(O)c1ccccc1` [PHENYLBORONIC ACID] came in with an IC50 of 1840 µM. For the same compound, the residual activity in assay [2] came out at 51.7%.

`OB(O)c1ccc(Br)cc1`: the IC50 in assay [1] worked out at 1030 µM. The same compound showed a residual activity in assay [2] of 37.7%.

Turning to `OB(O)c1ccc(C(F)(F)F)cc1`, the IC50 in assay [1] turned out to be 800 µM. Besides, the residual activity in assay [2] was found to be 26.9%.

`COc1ccc(B(O)O)cc1` returned a half-maximal inhibitory concentration (IC50) in assay [1] of 6200 µM. The compound further came in with a residual activity in assay [2] of 66.1%.

In general, IC50 refers to the midpoint of a concentration-inhibition curve. Low values mean inhibition by little substance, high ones a need for much substance. One may read the residual activity as the share of the control activity or signal that is left under treatment. Low values mean little activity left, high ones much activity left.
